According to ChEMBL document CHEMBL1201861, “Genomics of Drug Sensitity in Cancer screening data, Wellcome Trust Sanger Institute”:

How the values were obtained:
Experiment in all cases: cells
[1] = system: NCI-H1355; assay type: functional, cell-based, Homo sapiens;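 further: growth inhibition of human NCI-H1355 cells, read out by a cell viability assay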
Description: SANGER: Inhibition of human NCI-H1355 cell growth in a cell viability assay.

[2] = system: K5; assay type: functional, cell-based, Homo sapiens
Description: SANGER: Inhibition of human K5 cell growth in a cell viability assay.

[3] = system: Ramos-2G6-4C10; assay type: functional, cell-based, Homo sapiens;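 further: growth inhibition of the cell line, measured by a cell viability read-out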
Description: SANGER: Inhibition of human Ramos-2G6-4C10 cell growth in a cell viability assay.

[4] = system: GOTO; assay type: functional, cell-based, Homo sapiens;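 further: growth inhibition of GOTO cells, read out by a cell viability assay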
Description: SANGER: Inhibition of human GOTO cell growth in a cell viability assay.

[5] = system: SK-NEP-1; assay type: functional, cell-based, Homo sapiens;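 further: growth inhibition of human SK-NEP-1 cells, read out by a cell viability assay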
Description: SANGER: Inhibition of human SK-NEP-1 cell growth in a cell viability assay.

[6] = system: EW-24; assay type: functional, cell-based, Homo sapiens; conditions: Homo sapiens, EW-24;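 further: human EW-24 cancer cell line, growth inhibition read out via a cell viability assay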
Description: SANGER: Inhibition of human EW-24 cell growth in a cell viability assay.

[7] = system: RS4-11; assay type: functional, cell-based, Homo sapiens;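 further: growth inhibition of RS4-11 cells, read out by a cell viability assay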
Description: SANGER: Inhibition of human RS4-11 cell growth in a cell viability assay.

[8] = system: EM-2; assay type: functional, cell-based, Homo sapiens;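 further: growth inhibition of EM-2 cells, read out with a cell viability assay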
Description: SANGER: Inhibition of human EM-2 cell growth in a cell viability assay.

[9] = system: NCI-H747; assay type: functional, cell-based, Homo sapiens;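 further: growth inhibition of human NCI-H747 cells, read out by a cell viability assay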
Description: SANGER: Inhibition of human NCI-H747 cell growth in a cell viability assay.

[10] = system: NCI-H1395; assay type: functional, cell-based, Homo sapiens;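 further: cell viability assay read-out quantifying reduced proliferation of human NCI-H1395 cells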
Description: SANGER: Inhibition of human NCI-H1395 cell growth in a cell viability assay.

[11] = system: NB69; assay type: functional, cell-based, Homo sapiens;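 further: growth inhibition of NB69 cells, determined by a cell viability assay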
Description: SANGER: Inhibition of human NB69 cell growth in a cell viability assay.

[12] = system: BE-13; assay type: functional, cell-based, Homo sapiens;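 further: growth inhibition of human BE-13 cells, measured with a cell viability assay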
Description: SANGER: Inhibition of human BE-13 cell growth in a cell viability assay.

[13] = system: EW-3; assay type: functional, cell-based, Homo sapiens;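 further: cell viability assay read-out, IC50 reflects inhibition of growth of the EW-3 cells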
Description: SANGER: Inhibition of human EW-3 cell growth in a cell viability assay.

[14] = system: U-87 MG; assay type: functional, cell-based, Homo sapiens, U-87MG ATCC;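 further: growth inhibition of the cells measured with a viability assay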
Description: SANGER: Inhibition of human U-87-MG cell growth in a cell viability assay.

[15] = system: NCI-H510A; assay type: functional, cell-based, Homo sapiens;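 further: growth inhibition of NCI-H510A cells, read out with a cell viability assay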
Description: SANGER: Inhibition of human NCI-H510A cell growth in a cell viability assay.

[16] = system: MOLT-16; assay type: functional, cell-based, Homo sapiens;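 further: growth inhibition of human MOLT-16 cells, read out with a cell viability assay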
Description: SANGER: Inhibition of human MOLT-16 cell growth in a cell viability assay.

[17] = system: HDLM-2; assay type: functional, cell-based, Homo sapiens;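 further: cell viability assay measuring suppression of HDLM-2 proliferation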
Description: SANGER: Inhibition of human HDLM-2 cell growth in a cell viability assay.

[18] = system: DSH1; assay type: functional, cell-based, Homo sapiens;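 further: growth inhibition of human DSH1 cells, measured with a cell viability readout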
Description: SANGER: Inhibition of human DSH1 cell growth in a cell viability assay.

[19] = system: MPP-89; assay type: functional, cell-based, Homo sapiens;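 further: growth inhibition of human MPP-89 cells, read out with a cell viability assay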
Description: SANGER: Inhibition of human MPP-89 cell growth in a cell viability assay.

[20] = system: EW-11; assay type: functional, cell-based, Homo sapiens;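 further: growth inhibition of human EW-11 cells, measured with a cell viability assay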
Description: SANGER: Inhibition of human EW-11 cell growth in a cell viability assay.

[21] = system: SK-MEL-1; assay type: functional, cell-based, Homo sapiens;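 further: growth inhibition of human SK-MEL-1 cells, read out by a cell viability assay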
Description: SANGER: Inhibition of human SK-MEL-1 cell growth in a cell viability assay.

[22] = system: OCUB-M; assay type: functional, cell-based, Homo sapiens;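 further: growth inhibition of the cancer cell line, read out through a cell viability assay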
Description: SANGER: Inhibition of human OCUB-M cell growth in a cell viability assay.

[23] = system: KS-1; assay type: functional, cell-based, Homo sapiens;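 further: growth inhibition of KS-1 cells, read out with a cell viability assay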
Description: SANGER: Inhibition of human KS-1 cell growth in a cell viability assay.

[24] = system: D-247MG; assay type: functional, cell-based, Homo sapiens
Description: SANGER: Inhibition of human D-247MG cell growth in a cell viability assay.

[25] = system: U-266; assay type: functional, cell-based, Homo sapiens
Description: SANGER: Inhibition of human U-266 cell growth in a cell viability assay.

[26] = system: GI-1; assay type: functional, cell-based, Homo sapiens;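 further: growth inhibition of human GI-1 cells, measured with a cell viability readout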
Description: SANGER: Inhibition of human GI-1 cell growth in a cell viability assay.

[27] = system: GB-1; assay type: functional, cell-based, Homo sapiens;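 further: growth of GB-1 cells judged by a viability assay, IC50 marks the concentration inhibiting growth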
Description: SANGER: Inhibition of human GB-1 cell growth in a cell viability assay.

[28] = system: GI-ME-N; assay type: functional, cell-based, Homo sapiens;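 further: growth inhibition of human GI-ME-N cells, read out with a cell viability assay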
Description: SANGER: Inhibition of human GI-ME-N cell growth in a cell viability assay.

[29] = system: DU-4475; assay type: functional, cell-based, Homo sapiens
Description: SANGER: Inhibition of human DU-4475 cell growth in a cell viability assay.

[30] = system: TE-6; assay type: functional, cell-based, Homo sapiens;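 further: growth inhibition of TE-6 cells, read out with a cell viability assay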
Description: SANGER: Inhibition of human TE-6 cell growth in a cell viability assay.

[31] = system: OS-RC-2; assay type: functional, cell-based, Homo sapiens;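 further: growth inhibition of human OS-RC-2 cells, measured by a cell viability assay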
Description: SANGER: Inhibition of human OS-RC-2 cell growth in a cell viability assay.

[32] = system: IST-MES1; assay type: functional, cell-based, Homo sapiens;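 further: growth inhibition of IST-MES1 cells, measured with a cell viability assay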
Description: SANGER: Inhibition of human IST-MES1 cell growth in a cell viability assay.

[33] = system: NB13; assay type: functional, cell-based, Homo sapiens;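 further: cell viability readout measuring growth inhibition of human NB13 cells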
Description: SANGER: Inhibition of human NB13 cell growth in a cell viability assay.

[34] = system: HOP-62; assay type: functional, cell-based, Homo sapiens;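 further: cell growth inhibition determined with a viability assay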
Description: SANGER: Inhibition of human HOP-62 cell growth in a cell viability assay.

[35] = system: IST-SL1; assay type: functional, cell-based, Homo sapiens;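 further: growth inhibition of human IST-SL1 cells, read out with a cell viability assay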
Description: SANGER: Inhibition of human IST-SL1 cell growth in a cell viability assay.

[36] = system: NCI-H526; assay type: functional, cell-based, Homo sapiens;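 further: growth inhibition of the human NCI-H526 cell line, measured by a cell viability assay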
Description: SANGER: Inhibition of human NCI-H526 cell growth in a cell viability assay.

[37] = system: MMAC-SF; assay type: functional, cell-based, Homo sapiens;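 further: growth inhibition of human MMAC-SF cells, read out with a cell viability assay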
Description: SANGER: Inhibition of human MMAC-SF cell growth in a cell viability assay.

[38] = system: C2BBe1; assay type: functional, cell-based, Homo sapiens;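 further: growth inhibition of C2BBe1 cells, read out through a viability assay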
Description: SANGER: Inhibition of human C2BBe1 cell growth in a cell viability assay.

[39] = system: TK-10; assay type: functional, cell-based, Homo sapiens;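 further: growth inhibition of TK-10 cells, read out in a cell viability assay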
Description: SANGER: Inhibition of human TK10 cell growth in a cell viability assay.

[40] = system: D283 Med; assay type: functional, cell-based, Homo sapiens
Description: SANGER: Inhibition of human D-283MED cell growth in a cell viability assay.

[41] = system: D-502MG; assay type: functional, cell-based, Homo sapiens
Description: SANGER: Inhibition of human D-502MG cell growth in a cell viability assay.

[42] = system: CAS-1; assay type: functional, cell-based, Homo sapiens;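 further: growth inhibition of CAS-1 cells, measured with a cell viability assay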
Description: SANGER: Inhibition of human CAS-1 cell growth in a cell viability assay.

[43] = system: RCC10RGB; assay type: functional, cell-based, Homo sapiens;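 further: growth inhibition of human RCC10RGB cells, read out by a cell viability assay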
Description: SANGER: Inhibition of human RCC10RGB cell growth in a cell viability assay.

[44] = system: CGTH-W-1; assay type: functional, cell-based, Homo sapiens;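 further: growth inhibition of human CGTH-W-1 cells measured by cell viability assay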
Description: SANGER: Inhibition of human CGTH-W-1 cell growth in a cell viability assay.

[45] = system: SNU-C2B; assay type: functional, cell-based, Homo sapiens;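 further: cell viability readout used to measure compound-driven suppression of SNU-C2B cell proliferation, IC50 marking half-maximal growth inhibition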
Description: SANGER: Inhibition of human SNU-C2B cell growth in a cell viability assay.

[46] = system: IA-LM; assay type: functional, cell-based, Homo sapiens;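 further: cell viability assay measuring growth inhibition of human IA-LM cells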
Description: SANGER: Inhibition of human IA-LM cell growth in a cell viability assay.

[47] = system: NCI-H1304; assay type: functional, cell-based, Homo sapiens;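 further: growth inhibition of the cancer cell line, measured in a cell viability assay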
Description: SANGER: Inhibition of human NCI-H1304 cell growth in a cell viability assay.

[48] = system: TE-11; assay type: functional, cell-based, Homo sapiens;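 further: growth inhibition of human TE-11 cells, read out by a cell viability assay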
Description: SANGER: Inhibition of human TE-11 cell growth in a cell viability assay.

[49] = system: MSTO-211H; assay type: functional, cell-based, Homo sapiens
Description: SANGER: Inhibition of human MSTO-211H cell growth in a cell viability assay.

Compound: C#Cc1cccc(Nc2ncnc3cc(OCCOC)c(OCCOC)cc23)c1 [ERLOTINIB]
- IC50 ([1]; Homo sapiens, NCI-H1355): > 2 µM
- IC50 ([2]; Homo sapiens, K5): > 2 µM
- IC50 ([3]; Homo sapiens, Ramos-2G6-4C10): > 2 µM
- IC50 ([4]; Homo sapiens, GOTO): > 2 µM
- IC50 ([5]; Homo sapiens, SK-NEP-1): > 2 µM
- IC50 [6]: 0.000594 mM
- IC50 ([7]; Homo sapiens, RS4-11): > 2 µM
- IC50 ([8]; Homo sapiens, EM-2): > 2 µM
- IC50 ([9]; Homo sapiens, NCI-H747): > 2 µM
- IC50 ([10]; Homo sapiens, NCI-H1395): > 2 µM
- IC50 ([11]; Homo sapiens, NB69): > 2 µM
- IC50 ([12]; Homo sapiens, BE-13): > 2 µM
- IC50 ([13]; Homo sapiens, EW-3): > 2 µM
- IC50 ([14]; Homo sapiens, U-87 MG): > 2 µM
- IC50 ([15]; Homo sapiens, NCI-H510A): > 2 µM
- IC50 ([16]; Homo sapiens, MOLT-16): 1.93 µM
- IC50 ([17]; Homo sapiens, HDLM-2): > 2 µM
- IC50 ([18]; Homo sapiens, DSH1): > 2 µM
- IC50 ([19]; Homo sapiens, MPP-89): > 2 µM
- IC50 ([20]; Homo sapiens, EW-11): > 2 µM
- IC50 ([21]; Homo sapiens, SK-MEL-1): > 2 µM
- IC50 ([22]; Homo sapiens, OCUB-M): > 2 µM
- IC50 ([23]; Homo sapiens, KS-1): > 2 µM
- IC50 ([24]; Homo sapiens, D-247MG): > 2 µM
- IC50 ([25]; Homo sapiens, U-266): > 2 µM
- IC50 ([26]; Homo sapiens, GI-1): > 2 µM
- IC50 ([27]; Homo sapiens, GB-1): > 2 µM
- IC50 ([28]; Homo sapiens, GI-ME-N): > 2 µM
- IC50 ([29]; Homo sapiens, DU-4475): > 2 µM
- IC50 ([30]; Homo sapiens, TE-6): > 2 µM
- IC50 ([31]; Homo sapiens, OS-RC-2): > 2 µM
- IC50 ([32]; Homo sapiens, IST-MES1): > 2 µM
- IC50 ([33]; Homo sapiens, NB13): > 2 µM
- IC50 ([34]; Homo sapiens, HOP-62): > 2 µM
- IC50 ([35]; Homo sapiens, IST-SL1): > 2 µM
- IC50 ([36]; Homo sapiens, NCI-H526): > 2 µM
- IC50 ([37]; Homo sapiens, MMAC-SF): > 2 µM
- IC50 ([38]; Homo sapiens, C2BBe1): > 2 µM
- IC50 ([39]; Homo sapiens, TK-10): 0.859 µM
- IC50 ([40]; Homo sapiens, D283 Med): > 2 µM
- IC50 ([41]; Homo sapiens, D-502MG): > 2 µM
- IC50 ([42]; Homo sapiens, CAS-1): > 2 µM
- IC50 ([43]; Homo sapiens, RCC10RGB): > 2 µM
- IC50 ([44]; Homo sapiens, CGTH-W-1): > 2 µM

Compound: CN(C)C(=N)NC(=N)N [METFORMIN]
- IC50 ([1]; Homo sapiens, NCI-H1355): > 20000 µM
- IC50 ([2]; Homo sapiens, K5): > 20000 µM
- IC50 ([3]; Homo sapiens, Ramos-2G6-4C10): > 20000 µM
- IC50 ([4]; Homo sapiens, GOTO): > 20000 µM
- IC50 ([5]; Homo sapiens, SK-NEP-1): 15000 µM
- IC50 [6]: 9.45 mM
- IC50 ([7]; Homo sapiens, RS4-11): > 20000 µM
- IC50 ([9]; Homo sapiens, NCI-H747): > 20000 µM
- IC50 ([10]; Homo sapiens, NCI-H1395): > 20000 µM
- IC50 ([11]; Homo sapiens, NB69): > 20000 µM
- IC50 ([12]; Homo sapiens, BE-13): 18000 µM
- IC50 ([13]; Homo sapiens, EW-3): 12200 µM
- IC50 ([14]; Homo sapiens, U-87 MG): > 20000 µM
- IC50 ([15]; Homo sapiens, NCI-H510A): 1310 µM
- IC50 ([16]; Homo sapiens, MOLT-16): > 20000 µM
- IC50 ([17]; Homo sapiens, HDLM-2): 18400 µM
- IC50 ([18]; Homo sapiens, DSH1): > 20000 µM
- IC50 ([19]; Homo sapiens, MPP-89): > 20000 µM
- IC50 ([20]; Homo sapiens, EW-11): > 20000 µM
- IC50 ([21]; Homo sapiens, SK-MEL-1): 11800 µM
- IC50 ([45]; Homo sapiens, SNU-C2B): > 20000 µM
- IC50 ([22]; Homo sapiens, OCUB-M): 11400 µM
- IC50 ([23]; Homo sapiens, KS-1): > 20000 µM
- IC50 ([24]; Homo sapiens, D-247MG): > 20000 µM
- IC50 ([25]; Homo sapiens, U-266): > 20000 µM
- IC50 ([26]; Homo sapiens, GI-1): > 20000 µM
- IC50 ([27]; Homo sapiens, GB-1): > 20000 µM
- IC50 ([28]; Homo sapiens, GI-ME-N): > 20000 µM
- IC50 ([29]; Homo sapiens, DU-4475): 3840 µM
- IC50 ([30]; Homo sapiens, TE-6): 14200 µM
- IC50 ([31]; Homo sapiens, OS-RC-2): 13000 µM
- IC50 ([46]; Homo sapiens, IA-LM): > 20000 µM
- IC50 ([32]; Homo sapiens, IST-MES1): > 20000 µM
- IC50 ([36]; Homo sapiens, NCI-H526): 16100 µM
- IC50 ([47]; Homo sapiens, NCI-H1304): 15.6 mM
- IC50 ([38]; Homo sapiens, C2BBe1): 11800 µM
- IC50 ([39]; Homo sapiens, TK-10): > 20000 µM
- IC50 ([40]; Homo sapiens, D283 Med): > 20000 µM
- IC50 ([41]; Homo sapiens, D-502MG): > 20000 µM
- IC50 ([48]; Homo sapiens, TE-11): > 20000 µM
- IC50 ([49]; Homo sapiens, MSTO-211H): > 20000 µM
- IC50 ([44]; Homo sapiens, CGTH-W-1): > 20000 µM

Compound: CISPLATIN
- IC50 ([1]; nci-h1355): 6.63 µM
- IC50 ([2]; k5): 3.73 µM
- IC50 ([3]; ramos-2g6-4c10): 26.5 µM
- IC50 ([4]; goto): 3.09 µM
- IC50 ([5]; sk-nep-1): 7.18 µM
- IC50 ([7]; rs4-11): 5.57 µM
- IC50 ([8]; em-2): 71.2 µM
- IC50 ([9]; nci-h747): 16.9 µM
- IC50 ([10]; nci-h1395): 43.4 µM
- IC50 ([11]; nb69): 52.1 µM
- IC50 ([12]; be-13): 51.1 µM
- IC50 ([13]; ew-3): 1.6 µM
- IC50 ([14]; u-87mg atcc): 16.2 µM
- IC50 ([15]; nci-h510a): 3.1 µM
- IC50 ([16]; molt-16): 8.36 µM
- IC50 ([17]; hdlm-2): 144 µM
- IC50 ([18]; dsh1): 145 µM
- IC50 ([19]; mpp-89): 16.2 µM
- IC50 ([20]; ew-11): 21 µM
- IC50 ([21]; sk-mel-1): 14.7 µM
- IC50 ([45]; snu-c2b): 38.4 µM
- IC50 ([22]; ocub-m): 22.7 µM
- IC50 ([23]; ks-1): 28.3 µM
- IC50 ([24]; d-247mg): 10.8 µM
- IC50 ([25]; u-266): 154 µM
- IC50 ([26]; gi-1): 2.06 µM
- IC50 ([27]; gb-1): 1.9 µM
- IC50 ([28]; gi-me-n): 11 µM
- IC50 ([29]; du-4475): 111 µM
- IC50 ([30]; te-6): 57.3 µM
- IC50 ([31]; os-rc-2): 3.87 µM
- IC50 ([46]; ia-lm): 23.1 µM
- IC50 ([32]; ist-mes1): 19.7 µM
- IC50 ([33]; nb13): 40.1 µM
- IC50 ([34]; hop-62): 659 µM
- IC50 ([35]; ist-sl1): 70.6 µM
- IC50 ([36]; nci-h526): 2.06 µM
- IC50 ([47]; nci-h1304): 0.00985 mM
- IC50 ([37]; mmac-sf): 531 µM
- IC50 ([38]; c2bbe1): 97 µM
- IC50 ([39]; tk-10): 31 µM
- IC50 ([40]; d283 med): 5.85 µM
- IC50 ([41]; d-502mg): 33.1 µM
- IC50 ([48]; te-11): 16.4 µM
- IC50 ([42]; cas-1): 116 µM
- IC50 ([49]; msto-211h): 57.1 µM
- IC50 ([43]; rcc10rgb): 917 µM
- IC50 ([44]; cgth-w-1): 4.55 µM
